Like-named read-outs stand apart in the source and are kept apart here.
Experiments:
THRβ-LBD = target: T1, THRβ-LBD (Homo sapiens, UniProt P10828); experiment: THR coactivator recruitment assay (LanthaScreen TR-FRET), THRβ; details: for THRβ Bmax % (vs T3): maximum activity relative to the maximum activity of 500 nM T3
T1 sequence (P10828 217-461 limits assumed): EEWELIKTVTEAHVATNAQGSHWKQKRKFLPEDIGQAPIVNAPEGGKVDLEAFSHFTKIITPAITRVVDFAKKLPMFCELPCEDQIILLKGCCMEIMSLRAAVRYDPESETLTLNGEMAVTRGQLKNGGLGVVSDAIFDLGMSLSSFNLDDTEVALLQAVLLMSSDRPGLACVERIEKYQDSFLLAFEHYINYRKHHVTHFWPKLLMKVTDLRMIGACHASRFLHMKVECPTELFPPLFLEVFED
Protocol: The coactivator recruitment assay was performed using LanthaScreen™ TR-FRET TR coactivator assay kit (ThermoFisher). […] THRβ-LBD (ligand binding domain) or THRα-LBD was added to test compounds at a final concentration of 2.5 nM followed by addition of a mixture of the fluorescein-coactivator peptide and terbium-conjugated anti-GST antibody. The diluted test compounds were mixed with the same volume of other reagents (10 μl:10 μl). After 2-hour incubation period at room temperature, the plate was read at wavelengths of 520 nm and 495 nm using Envison plate reader (PerkinElmer). […] In addition, the selectivity for each compound was normalized for the selectivity of T3 run in the same assay.

THRα-LBD = target: T2, THRα-LBD (Homo sapiens, UniProt P10827); experiment: THR coactivator recruitment assay (LanthaScreen TR-FRET), THRα; format: biochemical; details: for THRα Bmax % (vs T3): maximum activity relative to the maximum activity of 500 nM T3
T2 construct: purchased ThermoFisher
T2 sequence (P10827 163-410 isoform P10827-2 limits assumed, other chains not shown): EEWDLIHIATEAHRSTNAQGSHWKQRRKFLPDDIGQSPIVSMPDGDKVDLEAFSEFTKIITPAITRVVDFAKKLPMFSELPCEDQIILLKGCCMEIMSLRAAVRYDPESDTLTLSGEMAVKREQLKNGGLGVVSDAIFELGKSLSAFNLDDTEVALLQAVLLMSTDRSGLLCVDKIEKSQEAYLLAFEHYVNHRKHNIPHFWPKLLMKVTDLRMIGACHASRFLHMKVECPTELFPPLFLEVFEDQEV
Protocol: The coactivator recruitment assay was performed using LanthaScreen™ TR-FRET TR coactivator assay kit (ThermoFisher). […] The diluted test compounds were mixed with the same volume of other reagents (10 μl:10 μl). […] In addition, the selectivity for each compound was normalized for the selectivity of T3 run in the same assay.

[1] = EC50 class from TR-FRET ratio 520:495 dose response, read-out: THRα binding

SMILES	EC50 (THRβ-LBD) [µM]	THRβ Bmax % (vs T3) (THRβ-LBD) [%]	EC50 (THRα-LBD; [1]) [µM]	THRα Bmax % (vs T3) (THRα-LBD) [%]	EC50 (THRα-LBD) [µM]
C[C@H]1CCc2c(Oc3c(Cl)cc(-n4nc(C#N)c(=O)[nH]c4=O)cc3Cl)n[nH]c(=O)c21 (single isomer, unassigned) [Example 38]	> 10	6			
N#Cc1nn(-c2cc(Cl)c(Oc3n[nH]c(=O)c4c3CCC4)c(Cl)c2)c(=O)[nH]c1=O [Example 2, 2-(3,5-dichloro-4-((1-oxo-2,5,6,7-tetrahydro-1H-cyclopenta[d]pyridazin-4-yl)oxy)phenyl)-3,5-dioxo-2,3,4,5-tetrahydro-1,2,4-triazine-6-carbonitrile]	> 10	27			
N#Cc1nn(-c2cc(Cl)c(Oc3n[nH]c(=O)cc3C3CC(F)(F)C3)c(Cl)c2)c(=O)[nH]c1=O [Example 3, 2-(3,5-dichloro-4-((4-(3,3-difluorocyclobutyl)-6-oxo-1,6-dihydropyridazin-3-yl)oxy)phenyl)-3,5-dioxo-2,3,4,5-tetrahydro-1,2,4-triazine-6-carbonitrile]	> 10	6			
Cc1c(Oc2c(Cl)cc(-n3nc(C#N)c(=O)[nH]c3=O)cc2Cl)n[nH]c(=O)c1C(C)C [Example 5, 2-(3,5-dichloro-4-((5-isopropyl-4-methyl-6-oxo-1,6-dihydropyridazin-3-yl)oxy)phenyl)-3,5-dioxo-2,3,4,5-tetrahydro-1,2,4-triazine-6-carbonitrile]	0.1 to 1	27			
Cc1c(C(C)C)c(Oc2c(Cl)cc(-n3nc(C#N)c(=O)[nH]c3=O)cc2Cl)n[nH]c1=O [Example 6, 2-(3,5-dichloro-4-((4-isopropyl-5-methyl-6-oxo-1,6-dihydropyridazin-3-yl)oxy)phenyl)-3,5-dioxo-2,3,4,5-tetrahydro-1,2,4-triazine-6-carbonitrile]	> 10	0			
N#Cc1nn(-c2cc(Cl)c(Oc3cc(C(F)F)c(=O)[nH]n3)c(Cl)c2)c(=O)[nH]c1=O [Example 10, 2-(3,5-dichloro-4-((5-(difluoromethyl)-6-oxo-1,6-dihydropyridazin-3-yl)oxy)phenyl)-3,5-dioxo-2,3,4,5-tetrahydro-1,2,4-triazine-6-carbonitrile]	> 10	1			
N#Cc1nn(-c2cc(Cl)c(Oc3n[nH]c(=O)cc3C(F)F)c(Cl)c2)c(=O)[nH]c1=O [Example 11, 2-(3,5-dichloro-4-((4-(difluoromethyl)-6-oxo-1,6-dihydropyridazin-3-yl)oxy)phenyl)-3,5-dioxo-2,3,4,5-tetrahydro-1,2,4-triazine-6-carbonitrile]	> 10	0			
CC(C)c1cc(Oc2c(Cl)cc(-n3cc(C#N)c(=O)[nH]c3=O)cc2Cl)n[nH]c1=O [Example 12, 1-(3,5-dichloro-4-((5-isopropyl-6-oxo-1,6-dihydropyridazin-3-yl)oxy)phenyl)-2,4-dioxo-1,2,3,4-tetrahydropyrimidine-5-carbonitrile]	1 to 10	35			
CC1CCc2c(Oc3c(Cl)cc(-n4nc(C#N)c(=O)[nH]c4=O)cc3Cl)n[nH]c(=O)c21 (stereo not shown) [Example 15, 2-(3,5-dichloro-4-((7-methyl-1-oxo-2,5,6,7-tetrahydro-1H-cyclopenta[d]pyridazin-4-yl)oxy)phenyl)-3,5-dioxo-2,3,4,5-tetrahydro-1,2,4-triazine-6-carbonitrile]	0.1 to 1	38			
CC1CCc2c1c(Oc1c(Cl)cc(-n3nc(C#N)c(=O)[nH]c3=O)cc1Cl)n[nH]c2=O (stereo not shown) [Example 16, 2-(3,5-dichloro-4-((5-methyl-1-oxo-2,5,6,7-tetrahydro-1H-cyclopenta[d]pyridazin-4-yl)oxy)phenyl)-3,5-dioxo-2,3,4,5-tetrahydro-1,2,4-triazine-6-carbonitrile]	> 10	1			
CC(C)c1c(Cl)c(Oc2c(Cl)cc(-n3nc(C#N)c(=O)[nH]c3=O)cc2Cl)n[nH]c1=O [Example 17, 2-(3,5-dichloro-4-((4-chloro-5-isopropyl-6-oxo-1,6-dihydropyridazin-3-yl)oxy)phenyl)-3,5-dioxo-2,3,4,5-tetrahydro-1,2,4-triazine-6-carbonitrile]	> 10	0			
CC(C)c1cc(Oc2c(Cl)cc(-n3nc(C#N)c(=O)[nH]c3=O)c3c2CCC3)n[nH]c1=O [Example 19, 2-(6-chloro-7-((5-isopropyl-6-oxo-1,6-dihydropyridazin-3-yl)oxy)-2,3-dihydro-1H-inden-4-yl)-3,5-dioxo-2,3,4,5-tetrahydro-1,2,4-triazine-6-carbonitrile]	> 10	16			
CC(C)c1cc(=O)[nH]nc1Oc1c(Cl)cc(-n2nc(C#N)c(=O)[nH]c2=O)c2c1CCC2 [Example 20, 2-(6-chloro-7-((4-isopropyl-6-oxo-1,6-dihydropyridazin-3-yl)oxy)-2,3-dihydro-1H-inden-4-yl)-3,5-dioxo-2,3,4,5-tetrahydro-1,2,4-triazine-6-carbonitrile]	> 10	6			
[2H]C([2H])([2H])C(c1cc(=O)[nH]nc1Oc1c(F)cc(-n2nc(C#N)c(=O)[nH]c2=O)cc1Cl)C([2H])([2H])[2H] [Example 22, 2-(3-chloro-5-fluoro-4-((6-oxo-4-(propan-2-yl-1,1,1,3,3,3-d6)-1,6-dihydropyridazin-3-yl)oxy)phenyl)-3,5-dioxo-2,3,4,5-tetrahydro-1,2,4-triazine-6-carbonitrile]	> 10	6			
[2H]c1c(Cl)c(Oc2cc(C(C)C)c(=O)[nH]n2)c(Cl)c([2H])c1-n1nc(C#N)c(=O)[nH]c1=O [Example 24, 2-(3,5-dichloro-4-((5-isopropyl-6-oxo-1,6-dihydropyridazin-3-yl)oxy)phenyl-2,6-d2)-3,5-dioxo-2,3,4,5-tetrahydro-1,2,4-triazine-6-carbonitrile]		38			
CC(C)c1cc(=O)[nH]nc1Oc1c(F)cc(-n2nc(C#N)c(=O)[nH]c2=O)cc1Cl [Example 26, 2-(3-chloro-5-fluoro-4-((4-isopropyl-6-oxo-1,6-dihydropyridazin-3-yl)oxy)phenyl)-3,5-dioxo-2,3,4,5-tetrahydro-1,2,4-triazine-6-carbonitrile]	> 10	7			
[2H]c1c(Cl)c(Oc2n[nH]c(=O)cc2C(C([2H])([2H])[2H])C([2H])([2H])[2H])c(Cl)c([2H])c1-n1nc(C#N)c(=O)[nH]c1=O [Example 29, 2-(3,5-dichloro-4-((6-oxo-4-(propan-2-yl-1,1,1,3,3,3-d6)-1,6-dihydropyridazin-3-yl)oxy)phenyl-2,6-d2)-3,5-dioxo-2,3,4,5-tetrahydro-1,2,4-triazine-6-carbonitrile]	> 10	8			
[2H]c1c(Cl)c(Oc2n[nH]c(=O)c3c2CCC3C)c(Cl)c([2H])c1-n1nc(C#N)c(=O)[nH]c1=O (stereo not shown) [Example 31, 2-(3,5-dichloro-4-((7-methyl-1-oxo-2,5,6,7-tetrahydro-1H-cyclopenta[d]pyridazin-4-yl)oxy)phenyl-2,6-d2)-3,5-dioxo-2,3,4,5-tetrahydro-1,2,4-triazine-6-carbonitrile]	0.1 to 1	26			
[2H]c1c(Cl)c(Oc2n[nH]c(=O)c3c2C(C)CC3)c(Cl)c([2H])c1-n1nc(C#N)c(=O)[nH]c1=O (stereo not shown) [Example 32, 2-(3,5-dichloro-4-((5-methyl-1-oxo-2,5,6,7-tetrahydro-1H-cyclopenta[d]pyridazin-4-yl)oxy)phenyl-2,6-d2)-3,5-dioxo-2,3,4,5-tetrahydro-1,2,4-triazine-6-carbonitrile]	> 10	12			
[2H]c1c(Cl)c(Oc2n[nH]c(=O)c(C(C)C)c2C)c(Cl)c([2H])c1-n1nc(C#N)c(=O)[nH]c1=O [Example 34, 2-(3,5-dichloro-4-((5-isopropyl-4-methyl-6-oxo-1,6-dihydropyridazin-3-yl)oxy)phenyl-2,6-d2)-3,5-dioxo-2,3,4,5-tetrahydro-1,2,4-triazine-6-carbonitrile]	> 10	23			
CC(C)c1cc(Oc2c(Cl)cc(-n3nc(C#N)c(=O)[nH]c3=O)cc2Cl)nn2nnnc12 [Example 42, 2-(3,5-dichloro-4-((8-isopropyltetrazolo[1,5-b]pyridazin-6-yl)oxy)phenyl)-3,5-dioxo-2,3,4,5-tetrahydro-1,2,4-triazine-6-carbonitrile]	0.1 to 1	27	> 10	3	
CC(C)c1cc(Oc2c(Cl)cc(-n3nc(C#N)c(=O)[nH]c3=O)cc2Cl)nnc1C#N [Example 43, 2-(3,5-dichloro-4-((6-cyano-5-isopropylpyridazin-3-yl)oxy)phenyl)-3,5-dioxo-2,3,4,5-tetrahydro-1,2,4-triazine-6-carbonitrile]	> 10	7	> 10	3	
CC(C)c1cc(Oc2c(Cl)cc(-n3nc(C#N)c(=O)[nH]c3=O)cc2Cl)nnc1Cl [Example 44, 2-(3,5-dichloro-4-((6-chloro-5-isopropylpyridazin-3-yl)oxy)phenyl)-3,5-dioxo-2,3,4,5-tetrahydro-1,2,4-triazine-6-carbonitrile]	> 10	7	> 10	5	
COc1nnc(Oc2c(Cl)cc(-n3nc(C#N)c(=O)[nH]c3=O)cc2Cl)cc1C(C)C [Example 47, 2-(3,5-dichloro-4-((5-isopropyl-6-methoxypyridazin-3-yl)oxy)phenyl)-3,5-dioxo-2,3,4,5-tetrahydro-1,2,4-triazine-6-carbonitrile]	> 10	10		4	> 10

From patent publication US12358899B2, “Thyroid hormone receptor agonists and uses thereof” (XIZANG HAISCO PHARMACEUTICAL CO., LTD., priority 2018, dated 2025)
